For one compound, UDP-Glo glycosyltransferase assay results are on record in PMC12406734, “B3GALT6 mutations lead to compromised connective tissue biomechanics in Ehlers-Danlos syndrome” (JCI Insight, 2025).

The target in the assay is T1, GlcAT-I (GST-GlcAT-I) (Homo sapiens, UniProt O94766).
T1 construct: gene B3GAT3; truncated GlcAT-I, GST fusion, E. coli, purified
T1 sequence (O94766 29-335 limits assumed): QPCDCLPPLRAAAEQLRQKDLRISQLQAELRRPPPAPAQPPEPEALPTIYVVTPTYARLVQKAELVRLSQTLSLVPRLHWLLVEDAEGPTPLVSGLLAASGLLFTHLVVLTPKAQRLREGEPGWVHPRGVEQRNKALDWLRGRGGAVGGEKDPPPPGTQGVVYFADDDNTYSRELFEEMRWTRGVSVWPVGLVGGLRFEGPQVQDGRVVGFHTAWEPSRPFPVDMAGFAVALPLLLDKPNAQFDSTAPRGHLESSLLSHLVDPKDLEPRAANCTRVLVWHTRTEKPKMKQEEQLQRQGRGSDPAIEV
The assay is described as follows: UDP-Glo glycosyltransferase assay. The class given is biochemical. Particulars: acceptor; 5 mM UDP-GlcA, 100 mM sodium acetate pH 6.5, 10 mM MnCl2, 37 °C, 60 min.

SMILES strings stand for the structures.

For `COc1ccc2ccc(O[C@@H]3OC[C@@H](O[C@@H]4O[C@H](CO)[C@H](O)[C@H](O[C@@H]5O[C@H](CO)[C@H](O)[C@H](O)[C@H]5O)[C@H]4O)[C@H](O)[C@H]3O)cc2c1` [Gal-Gal-Xyl-OMN], the UDP-Glo glycosyltransferase assay entry is “GlcAT-I was highly active towards the trisaccharide Gal-Gal-Xyl-OMN”.
